Some results are limits rather than exact numbers.

GCN2, sequence (Q9P2K8 whole entry): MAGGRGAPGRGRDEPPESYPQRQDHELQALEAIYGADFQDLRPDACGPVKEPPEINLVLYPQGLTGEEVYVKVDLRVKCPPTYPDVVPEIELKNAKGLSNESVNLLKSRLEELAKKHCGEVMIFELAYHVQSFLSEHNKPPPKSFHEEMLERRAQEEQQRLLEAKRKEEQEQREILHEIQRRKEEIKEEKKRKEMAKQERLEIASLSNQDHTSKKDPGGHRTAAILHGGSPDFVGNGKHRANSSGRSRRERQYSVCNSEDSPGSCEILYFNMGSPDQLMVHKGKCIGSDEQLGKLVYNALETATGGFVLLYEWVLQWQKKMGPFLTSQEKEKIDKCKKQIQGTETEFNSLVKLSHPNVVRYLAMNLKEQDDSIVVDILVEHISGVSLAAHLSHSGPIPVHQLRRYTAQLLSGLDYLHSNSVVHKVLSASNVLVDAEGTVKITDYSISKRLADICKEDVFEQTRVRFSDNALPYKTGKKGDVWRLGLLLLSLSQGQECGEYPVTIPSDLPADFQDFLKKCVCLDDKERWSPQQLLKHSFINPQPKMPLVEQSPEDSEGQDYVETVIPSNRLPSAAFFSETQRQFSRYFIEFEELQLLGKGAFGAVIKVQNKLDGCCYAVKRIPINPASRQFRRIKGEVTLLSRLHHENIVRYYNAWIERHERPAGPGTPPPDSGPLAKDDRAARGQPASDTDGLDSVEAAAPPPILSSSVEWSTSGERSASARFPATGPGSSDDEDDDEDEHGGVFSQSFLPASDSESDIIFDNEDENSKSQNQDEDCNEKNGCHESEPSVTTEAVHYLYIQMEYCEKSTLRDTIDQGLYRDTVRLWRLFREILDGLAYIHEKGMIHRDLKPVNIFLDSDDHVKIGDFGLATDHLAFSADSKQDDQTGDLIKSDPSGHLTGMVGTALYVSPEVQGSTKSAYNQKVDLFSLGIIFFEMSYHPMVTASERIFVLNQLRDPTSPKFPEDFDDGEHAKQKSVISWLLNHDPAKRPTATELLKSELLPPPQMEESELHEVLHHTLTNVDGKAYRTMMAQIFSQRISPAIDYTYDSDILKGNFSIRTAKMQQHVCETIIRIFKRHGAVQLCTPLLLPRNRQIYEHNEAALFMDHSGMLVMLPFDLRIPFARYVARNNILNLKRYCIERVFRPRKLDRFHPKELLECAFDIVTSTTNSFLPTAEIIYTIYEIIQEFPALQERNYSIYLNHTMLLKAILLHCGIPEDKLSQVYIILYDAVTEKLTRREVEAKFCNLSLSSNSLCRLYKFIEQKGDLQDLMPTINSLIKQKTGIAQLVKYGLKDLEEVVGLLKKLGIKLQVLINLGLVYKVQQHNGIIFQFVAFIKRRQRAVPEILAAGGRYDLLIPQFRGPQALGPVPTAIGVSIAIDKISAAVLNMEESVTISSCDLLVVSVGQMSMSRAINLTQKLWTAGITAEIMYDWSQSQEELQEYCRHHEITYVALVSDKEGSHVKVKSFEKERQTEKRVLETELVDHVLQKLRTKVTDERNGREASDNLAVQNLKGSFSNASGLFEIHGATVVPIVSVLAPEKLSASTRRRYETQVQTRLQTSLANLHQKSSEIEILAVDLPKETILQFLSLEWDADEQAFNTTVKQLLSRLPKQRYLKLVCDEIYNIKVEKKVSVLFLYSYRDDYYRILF

The target in one experiment is GCN2 (Homo sapiens, UniProt Q9P2K8). Kind of experiment: GCN2 enzymatic endpoint assay: phosphorylation of GFP-eIF2α measured by TR-FRET (Lanthascreen). The class given is biochemical. Conditions: GCN2 biochemical IC50; 4 nM GCN2, 2 μM ATP, 80 nM GFP-eIF2α, 90 min RT; read-out: GCN2 activity. Put shortly:
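Reaction started with 2 μM ATP and 80 nM GFP-labelled eIF2α substrate at room temperature, stopped with EDTA after 90 minutes. Phospho-eIF2α detected by terbium-labelled antibody TR-FRET; activity taken as 520 nm (fluorescein) to 495 nm (terbium) emission ratio.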
On to `CNC(=O)[C@]1(C)CC[C@@H](Nc2ncc3c(Br)nn(-c4ccc(-c5nnc(C)o5)c(C#N)c4)c3n2)C1` [Example 35, (1R,3R)-3-((3-bromo-1-(3-cyano-4-(5-methyl-1,3,4-oxadiazol-2-yl)phenyl)-1H-pyrazolo[3,4-d]pyrimidin-6-yl)amino)-N,1-dimethylcyclopentane-1-carboxamide; 2,2,2-trifluoroacetic acid], for which the IC50 is less than 0.025 µM.

The experiment is the same for the next values; noted with them: tested as described in Example 77; compound and/or hydrochloride, dihydrochloride or trifluoroacetic acid salt; read-out: IC 50 Activity.
As for `CNC(=O)[C@]1(CO)CC[C@@H](Nc2ncc3c(Br)nn(-c4ccc(-c5nnc(C)s5)c(CCC#N)c4)c3n2)C1` [(1R,3R)-3-[[3-bromo-1-[3-(2-cyanoethyl)-4-(5-methyl-1,3,4-thiadiazol-2-yl)phenyl]pyrazolo[3,4-d]pyrimidin-6-yl]amino]-1-(hydroxymethyl)-N-methyl-cyclopentane-carboxamide], the IC50 is 0.025 to 0.2 µM.

Take `Cc1nnc(-c2ccc(-n3nc(Br)c4cnc(N[C@@H]5CC[C@@H](NC(=O)C(C)C)C5)nc43)cc2CCC#N)s1` [N-[(1R,3R)-3-[[3-bromo-1-[3-(2-cyanoethyl)-4-(5-methyl-1,3,4-thiadiazol-2-yl)phenyl]pyrazolo[3,4-d]pyrimidin-6-yl]amino]cyclopentyl]-2-methyl-propanamide]: the IC50 fell in the range of 0.5 to 1 µM.

On to `CNC(=O)[C@@H]1CC[C@@H](Nc2ncc3c(Br)nn(-c4ccc(N5CCOCC5)c(C#N)c4)c3n2)C1` [(1R,3R)-3-((3-bromo-1-(3-cyano-4-morpholinophenyl)-1H-pyrazolo[3,4-d]pyrimidin-6-yl)amino)-N-methylcyclo-pentane-1-carboxamide], for which the IC50 is 0.5 to 1 µM.

For the molecule `CNC(=O)[C@]1(CO)CC[C@@H](Nc2ncc3c(Br)nn(-c4ccc(-c5nnc(C)s5)cc4)c3n2)C1` [(1R,3R)-3-[[3-bromo-1-[4-(5-methyl-1,3,4-thiadiazol-2-yl)phenyl]pyrazolo [3,4-d]pyrimidin-6-yl]amino]-1-(hydroxymethyl)-N-methyl-cyclo-pentanecarboxamide], the IC50 lay in the range of 0.025 to 0.2 µM.

For `CNC(=O)[C@]1(C)CC[C@@H](Nc2ncc3c(Br)nn(-c4ccc(C5=NCCO5)cc4)c3n2)C1` [(1R,3R)-3-[[3-bromo-1-[4-(4,5-dihydro-oxazol-2-yl)phenyl]pyrazolo[3,4-d]pyrimidin-6-yl]amino]-N,1-dimethyl-cyclopentanecarboxamide], the IC50 lay within 0.025 to 0.2 µM.

For `COc1cc(-n2nc(Br)c3cnc(N[C@@H]4CC[C@@H](C(=O)NCCS(C)(=O)=O)C4)nc32)ccn1`, the IC50 is 0.5 to 1 µM.

For `C[C@@]1(C(=O)N2CCNC(=O)C2)CC[C@@H](Nc2ncc3c(Br)nn(-c4cc(F)c5ncccc5c4)c3n2)C1` [4-[(1R,3R)-3-[[3-bromo-1-(8-fluoro-6-quinolyl)pyrazolo[3,4-d]pyrimidin-6-yl]amino]-1-methyl-cyclopentanecarbonyl] piperazin-2-one], the IC50 is less than 0.025 µM.

On to `Cc1nnc(-c2ccc(-n3nc(Br)c4cnc(N[C@@H]5CCC6(CC(=O)N(C)C6=O)C5)nc43)cc2CCC#N)s1` (stereo partly drawn) [3-[5-[3-bromo-6-[[(8R)-2-methyl-1,3-dioxo-2-azaspiro[4.4]nonan-8-yl]amino]pyrazolo[3,4-d]pyrimidin-1-yl]-2-(5-methyl-1,3,4-thiadiazol-2-yl)phenyl]propanenitrile; 2,2,2-trifluoroacetic acid], for which the IC50 fell in the range of 0.025 to 0.2 µM.

With `CNC(=O)[C@]1(C)CC[C@@H](Nc2ncc3c(Br)nn(-c4cc(NC(=O)CN)c5ncccc5c4)c3n2)C1` [(1R,3R)-3-[[1-[8-[(2-aminoacetyl)amino]-6-quinolyl]-3-bromo-pyrazolo[3,4-d]pyrimidin-6-yl]amino]-N,1-dimethyl-cyclopentanecarboxamide], the IC50 lay within 0.025 to 0.2 µM.

As for `CCN1C(=O)COc2cc(-n3nc(Br)c4cnc(N[C@@H]5CC[C@@](C)(C(=O)NC)C5)nc43)ccc21` [(1R,3R)-3-[[3-bromo-1-(4-ethyl-3-oxo-1,4-benzoxazin-7-yl)pyrazolo[3,4-d]pyrimidin-6-yl]amino]-N,1-dimethyl-cyclopentane-carboxamide], the IC50 was in the range of 0.025 to 0.2 µM.

On to `CNC(=O)[C@]1(C#N)CC[C@@H](Nc2ncc3c(Br)nn(-c4ccc(-c5nnc(C)s5)cc4)c3n2)C1`, for which the IC50 lay within 0.025 to 0.2 µM.

Consider `CNC(=O)C1(C)CC[C@@H](Nc2ncc3c(Br)nn(-c4cc(CO)cc(OC)c4)c3n2)C1` (stereo partly drawn) [(3R)-3-[[3-bromo-1-[3-(hydroxymethyl)-5-methoxy-phenyl]pyrazolo[3,4-d]pyrimidin-6-yl]amino]-N,1-dimethyl-cyclopentanecarboxamide], for which the IC50 fell in the range of 0.025 to 0.2 µM.

Regarding `C[C@H]1CN(C)C(=O)CN1C(=O)[C@@H]1CC[C@@H](Nc2ncc3c(Br)nn(-c4cc(F)c5ncccc5c4)c3n2)C1` [(S)-4-((1R,3R)-3-((3-bromo-1-(8-fluoroquinolin-6-yl)-1H-pyrazolo[3,4-d]pyrimidin-6-yl)amino)cyclopentane-1-carbonyl)-1,5-dimethyl-piperazin-2-one], the IC50 lay within 0.025 to 0.2 µM.

Regarding `O=C(NC1COC1)[C@@H]1CC[C@@H](Nc2ncc3c(Br)nn(-c4ccc5ncccc5c4)c3n2)C1` [(1R,3R)-3-((3-bromo-1-(quinolin-6-yl)-1H-pyrazolo[3,4-d]pyrimidin-6-yl)amino)-N-(oxetan-3-yl)cyclopentane-1-carboxamide], the IC50 was 0.025 to 0.2 µM.

Consider `O=C(NC1CCS(=O)(=O)CC1)[C@@H]1CC[C@@H](Nc2ncc3c(Br)nn(-c4ccc(-c5cccnc5)cc4)c3n2)C1`, for which the IC50 was in the range of 0.2 to 0.5 µM.

For the molecule `CNC(=O)[C@]1(C)CC[C@@H](Nc2ncc3c(Br)nn(-c4cc(CCCOC)c5c(c4)CCC(=O)N5C)c3n2)C1` [(1R,3R)-3-[[3-bromo-1-[8-(3-methoxy-propyl)-1-methyl-2-oxo-3,4-dihydro-quinolin-6-yl]pyrazolo[3,4-d]pyrimidin-6-yl]amino]-N,1-dimethyl-cyclopentane-carboxamide; 2,2,2-trifluoroacetic acid], the IC50 was 0.025 to 0.2 µM.

For `CNC(=O)[C@]1(C)CC[C@@H](Nc2ncc3c(Br)nn(-c4cc(CO)c5nccnc5c4)c3n2)C1` [(1R,3R)-3-[[3-bromo-1-[8-(hydroxymethyl)quinoxalin-6-yl]pyrazolo[3,4-d]pyrimidin-6-yl]amino]-N,1-dimethyl-cyclopentane-carboxamide], the IC50 lay in the range of 0.025 to 0.2 µM.

On to `C[C@]1(C(=O)N[C@@H]2CCOC2)C[C@H](Nc2ncc3c(Br)nn(-c4ccc5ncccc5c4)c3n2)C1`, for which the IC50 is 0.025 to 0.2 µM.

Consider `CNC(=O)[C@@H]1CC[C@@H](Nc2ncc3c(Br)nn(-c4cc(C#N)c5ncccc5c4)c3n2)C1` [(1R,3R)-3-((3-bromo-1-(8-cyanoquinolin-6-yl)-1H-pyrazolo[3,4-d]pyrimidin-6-yl)amino)-N-methylcyclopentane-1-carboxamide], for which the IC50 is less than 0.025 µM.

For `Cc1nnc(-c2ccc(-n3nc(Br)c4cnc(N[C@@H]5CC[C@@](C)(C#N)C5)nc43)cc2)s1`, the IC50 lay within 0.025 to 0.2 µM.

Regarding `N#CC1CN(C(=O)[C@@H]2CC[C@@H](Nc3ncc4c(Br)nn(-c5cc(F)c6ncccc6c5)c4n3)C2)C1` [1-[(1R,3R)-3-[[3-bromo-1-(8-fluoro-6-quinolyl)pyrazolo[3,4-d]pyrimidin-6-yl]amino]cyclopentanecarbonyl]azetidine-3-carbonitrile], the IC50 is less than 0.025 µM.

With `Cc1nnc(-c2ccc(-n3nc(Br)c4cnc(N[C@@H]5CC[C@@](C)(C(=O)NC6CC6)C5)nc43)cc2)s1` [(1R,3R)-3-[[3-bromo-1-[4-(5-methyl-1,3,4-thiadiazol-2-yl)phenyl]pyrazolo[3,4-d]pyrimidin-6-yl]amino]-N-cyclopropyl-1-methyl-cyclopentanecarboxamide], the IC50 lay within 0.025 to 0.2 µM.

For `Cc1nnc(-c2ccc(-n3nc(Br)c4cnc(N[C@@H]5CCC6(CC(=O)N(C)C6=O)C5)nc43)cc2)s1` (stereo partly drawn), the IC50 is less than 0.025 µM.

With `CNC(=O)[C@]1(CC(F)(F)F)CC[C@@H](Nc2ncc3c(Br)nn(-c4cc(F)c5ncccc5c4)c3n2)C1` [(1R,3R)-3-[[3-bromo-1-(8-fluoro-6-quinolyl)pyrazolo[3,4-d]pyrimidin-6-yl]amino]-N-methyl-1-(2,2,2-trifluoroethyl)cyclopentane-carboxamide], the IC50 was less than 0.025 µM.

`CNC(=O)[C@]1(C)CC[C@@H](Nc2ncc3c(Br)nn(-c4cc(C#N)cc(CCC5CNC5)c4)c3n2)C1` [(1R,3R)-3-[[1-[3-[2-(azetidin-3-yl)ethyl]-5-cyano-phenyl]-3-bromo-pyrazolo[3,4-d]pyrimidin-6-yl]amino]-N,1-dimethyl-cyclopentanecarboxamide]: the IC50 lay within 0.025 to 0.2 µM.

`CNC(=O)[C@]1(C)CC[C@@H](Nc2ncc3c(Br)nn(-c4ccc5c(c4)C(=O)C(=O)N5)c3n2)C1` [(1R,3R)-3-[[3-bromo-1-(2,3-dioxo-indolin-5-yl)pyrazolo[3,4-d]pyrimidin-6-yl]amino]-N,1-dimethyl-cyclo-pentanecarboxamide]: the IC50 was in the range of 0.025 to 0.2 µM.

`CNC(=O)[C@@H]1CC[C@@H](Nc2ncc3c(Br)nn(-c4ccc5ncccc5c4)c3n2)C1` [(1R,3R)-3-[[3-bromo-1-(6-quinolyl)pyrazolo[3,4-d]pyrimidin-6-yl]amino]-N-methyl-cyclopentanecarboxamide]: the IC50 is 0.025 to 0.2 µM.

On to `CNC(=O)[C@]1(C)CC[C@@H](Nc2ncc3c(Br)nn(-c4ccc(-c5nnc(C)s5)c(CCN5CCOCC5)c4)c3n2)C1` [(1R,3R)-3-[[3-bromo-1-[4-(5-methyl-1,3,4-thiadiazol-2-yl)-3-(2-morpholino-ethyl)phenyl]pyrazolo[3,4-d]pyrimidin-6-yl]amino]-N,1-dimethyl-cyclo-pentanecarboxamide], for which the IC50 was 0.025 to 0.2 µM.

`CNC(=O)[C@]1(C)CC[C@@H](Nc2ncc3c(Br)nn(-c4ccc(-c5nnc(C)o5)c(CCN)c4)c3n2)C1` [(1R,3R)-3-[[1-[3-(2-aminoethyl)-4-(5-methyl-1,3,4-oxadiazol-2-yl)phenyl]-3-bromopyrazolo[3,4-d]pyrimidin-6-yl]amino]-N,1-dimethyl-cyclopentane-carboxamide]: the IC50 fell in the range of 0.025 to 0.2 µM.
